Data on one compound can be found in US20180085356A1, “METHOD OF TREATING DISEASE CHARACTERISED BY PROTEIN AGGREGATE DEPOSITION IN NEURONAL CELLS” (CHRONOS THERAPEUTICS LIMITED, priority 2013, published 2018).

Each structure is given as a SMILES string.

For data set [1], the system named is C. elegans expressing 35 polyglutamine tract fused to YFP (Q35) in the body wall muscle. Kind of data set: C. elegans lifespan assay, polyglutamine Q35 strain. The format is in vivo, Caenorhabditis elegans. To be noted: p<0.05 vs. Q35 DMSO. On the procedure: (§1) Tacrolimus was tested in a number of disease models using the nematode worm, Caenorhabditis elegans, in which aggregate-prone proteins associated with neurodegenerative diseases are expressed in certain cell types. The effect of tacrolimus was determined by measuring the lifespan of worms in the presence and absence of tacrolimus, using the following general methodology. All of the worms tested using these assays also contained, in addition to the transgene expressing the disease-related protein, a mutation in the bus-5 gene which confers drug-sensitivity.
C. elegans cultures were synchronised by incubating an asynchronous culture in basic sodium hypochlorite solution to kill everything but the bleach-resistant mature eggs. The eggs were added on to agar plates and then allowed to hatch and develop in the presence of the test compound (or vehicle) and bacterial food source. […] From this point on, each ageing population was inspected at regular intervals (e.g. daily) and viability assessed by counting the number of dead worms.
(§2) The cumulative number of dead worms for each population was used to generate a survival/viability plot to determine chronological lifespan (CLS). Survival was analysed using the Kaplan-Meier log-rank survival analysis method, using the Online Application for Survival (OASIS; see http://sbi.postech.ac.kr/oasis). […]

A further data set deals with ALS. To be noted: Pong et al., Current Drug Targets 2003; cited from earlier work.
Data set [2] concerns primary motor neuron (MN) cultures generated from rat spinal cord. The data set is described as follows: Motor neuron culture with Aβ1-42 insult: neurite network and survival (MAP-2 staining). In kind it is cell-based. To be noted: 24 hours after 20 μM Aβ1-42 insult, treated 1 hour before. As for the experimental part: Primary motor neuron (MN) cultures generated from rat spinal cord were treated with 20 μM amyloid beta 1-42 peptide (Aβ1-42). […] This model was used to determine the effect of tacrolimus on TDP-43 toxicity in motor neurons. […] After permeabilisation with 0.1% saponin, one group of cells was incubated for 2 hours with a) mouse monoclonal anti-microtubule-associated-protein 2 (MAP-2) antibody, and b) rabbit polyclonal anti-TDP-43 antibody. The anti-MAP-2 antibody was used to determine MN survival (number of stained MN) and MN neurite length. The anti-TDP-43 antibody was used to examine extranuclear TDP-43: the area of extranuclear TDP-43 staining per MN was calculated by normalising to the number of MAP-2 positive cells.

A further data set concerns IL-6. Kind of data set: Microglial inflammatory cytokine production by qPCR (LPS challenge). In kind it is cell-based, rat. Particulars: 100 ng/ml LPS overnight. On the procedure:
(§3) To investigate the effect of tacrolimus on microglial function, rat microglia were isolated as follows. A primary glial co-culture was isolated from P2 Sprague Dawley rat pups. The cells were cultured until confluency and then the microglia were isolated from the confluent glial cells through mechanical shaking. The isolated microglial cells were then subjected to inflammatory challenge by overnight exposure to 100 ng/ml lipopolysaccharide (LPS), in the presence or absence of tacrolimus. Glial cell activity was monitored by determining cell viability (Cell Counting Kit-8), the presence of reactive oxygen species (by quantitative fluorescence measurement in the supernatant/cell lysate), microvesicle shedding (by monitoring vesicle formation in cells loaded with Calcein-AM and then challenged with 1 mM ATP) and inflammatory cytokine production (by qPCR).
(In general: Real-time PCR tracks product formation cycle by cycle.)

For the next data set, the system named is TNF-α. The data set is described as follows: Blood TNF-α levels in healthy human volunteers given tacrolimus capsule. The format is in vivo. As for the experimental part: A hard gelatine capsule was filled with the following composition:
One capsule as above containing 0.3 mg tacrolimus was administered daily to healthy human volunteers for three successive days. […] Similarly, no change in TNF-α levels occurred as a result of administering 0.6 mg daily of tacrolimus to healthy volunteers. The average trough level of tacrolimus (level after 24 hours of administration of each dose) observed was approximately 220 pg/ml.

The conditions of data set [3]: in vivo. On the procedure: Pharmacokinetic analysis was carried out by the Applicant. […] Therefore, even accounting for species differences in pharmacokinetics, preferred oral doses of tacrolimus in humans for the treatment of ALS would be expected to be below 1.3 mg/day and are likely to be below 0.55 mg/day.
Based on pharmacokinetic analysis, an oral tacrolimus dose of 2 mg/kg/day in the mouse is believed to correspond to a human oral dose of about 0.33-0.44 mg/day for a 70 kg person.

The test system of data set [4] is C. elegans expressing mutant human SOD-1 (127X) in the body wall muscle. Kind of data set: C. elegans lifespan assay, mutant SOD-1 strain. The format is in vivo, Caenorhabditis elegans. On the procedure: as §1
C. elegans cultures were synchronised by incubating an asynchronous culture in basic sodium hypochlorite solution to kill everything but the bleach-resistant mature eggs. […] From this point on, each ageing population was inspected at regular intervals (e.g. daily) and viability assessed by counting the number of dead worms.
as §2
The effect of tacrolimus on C. elegans expressing wild-type or mutant human SOD-1 in the body wall muscle was determined. […]

The next data set relates to rat microglia. Kind of data set: Microglial cell culture model of inflammation (LPS challenge). In kind it is cell-based. To be noted: 100 ng/ml LPS overnight. On the procedure:
as §3

Take `C=CC[C@@H]1/C=C(\C)C[C@H](C)C[C@H](OC)[C@H]2O[C@@](O)(C(=O)C(=O)N3CCCC[C@H]3C(=O)O[C@H](/C(C)=C/[C@@H]3CC[C@@H](O)[C@H](OC)C3)[C@H](C)[C@@H](O)CC1=O)[C@H](C)C[C@@H]2OC` [tacrolimus, Tacrolimus]: the lifespan entry is given as “significantly increases lifespan” in data set [1] and “significant increase in lifespan” in data set [4] (p<0.05 DMSO vs. Tacrolimus). Further, the “efficacy in the treatment of ALS” value in the data set on ALS is given as “ineffective”. In data set [2] (p<0.05 all concentrations vs. Aβ), the “motor neuron neurite network” value was “concentration-dependent increase”. Besides, the motor neuron survival result in data set [2] (p<0.05 for 100 nM, 1 μM vs. Aβ) is given as “concentration-dependent increase”. In the data set with IL-6, the “LPS induction of IL-6 expression” value is listed as “significantly reduced”. For the same compound, the “blood TNF-α levels” value in the data set on TNF-α (0.3 mg capsule daily for three successive days) is on record as “No significant changes”. Moreover, the TNF-α levels result in the data set with TNF-α (0.6 mg daily) was “no change”. In data set [3], the “human oral dose corresponding to oral dose of 2 mg/kg/day in the mouse” value is listed as 0.44-0.33. Moreover, the “increase in lifespan when bec-1 knocked down by RNAi” value in data set [4] (bec-1 RNAi, p>0.05 vs. bec-1 RNAi DMSO) is recorded as “virtually abolished”. Moreover, in the data set on rat microglia (p<0.01 all concentrations, concentration-dependent), the “LPS-induced oxidative stress (reactive oxygen species)” value is listed as “significantly reduced”. Moreover, in the data set on rat microglia (p<0.01 for 100 nM and 1 μM), the “LPS-induced increase in metabolic activity of glial cells” value is on record as “reduces this increase in a concentration-dependent manner”. For the same compound, the LPS-induced microvesicle shedding entry in the data set on rat microglia (p<0.01 for 1 μM, concentration-dependent) is “increase is reduced”.
